Laboratory results reported in patent US10183000B1, “2, 4-dinitroanilino-benzoic acid: novel insulinotropic agent for the treatment of diabetes” (priority 2017, dated 2019).
Entries after “also recorded” stand apart in the source; their conditions may differ.

Legend:
[1] = system: pancreatic islet in diabetic Wistar rats; assay: Islets histopathology (H&E) and insulin immunohistochemistry; format: in vivo; conditions: 100 mg/kg
Procedure: Procedure: Pancreata isolated from rats were fixed with 3.7% neutral buffered formalin and embedded in paraffin. The 5 μm thick sections (n=6/group) were stained with eosin and hematoxilin, and evaluated for islets histopathology, after performing deparaffinization and dehydration steps. For immunohistochemistry analysis, briefly the antigen was first retrieved by heating for 40 min at 90° C. in 5.0 mM citrate buffer, pH 4.5. Prior to primary antibody treatment, each section was then cooled at room temperature, and incubated with 1× rotti immunoblocking solution (Carl Roth, Karlsruhe, Germany). The sections were immunostained with mouse K36AC10 monoclonal anti-insulin antibody (1:2,000) (Sigma Aldrich, St. Louis, Mo., USA) for 1 hour in a dark humidified chamber at 37° C. The sections were then immunostained with Alexa Fluor 594 donkey anti-mouse IgM secondary antibody (1:200)(Jackson ImmunoResearch, Pa., USA) for 1 hour in a dark chamber at 37° C. for detention. Finally, beta cells nuclei were stained with DAPI (1:5,000) (Sigma Aldrich, St, Louis, Mo., USA). The stained sections were observed under Nikon 90i microscope, equipped with DXM-1200 digital camera (Nikon, Tokyo, Japan).

[2] = system: STZ-induced diabetic rats; assay: Fasting blood glucose in STZ-induced diabetic rats, eight weeks of treatment; format: in vivo, Wistar rats
Procedure: Animals: Eight weeks old Wistar rats (n=54; 24 males: 30 females) weighing 160-180 g were used in the study. During the eight weeks of the experiment, animals were kept in the animal house with a controlled temperature (25±2°C.), and 12 hours light/dark cycle. Water and standardized food access were provided at libitum.
Diabetes Induction: Prior to induction of diabetes, animals were given a high-fat diet (40% fat content) for two weeks. Diabetes was induced by administrating intraperitoneally a single dose of freshly prepared solution of streptozotocin (45 mg/kg) (Wako, Richmond, USA) in a chilled 0.1 M citrate buffer, pH 4.5. The normal control rats were injected with citrate buffer alone. Fasting blood glucose levels (FBG) were measured after 48 hours, and one week of diabetes induction with a blood glucose analyzer (Accu-Chek®, Roche, Mannheim, Germany). […]
Blood glucose levels and body weight of each group were monitored on weekly basis under fasting states. […] Serum- and isolated pancreatic insulin contents were measured by rat insulin ELISA kit (Amersham Biosciences, N.J., USA).
Statistical Analysis: All results are expressed as means ±SEM. The significance of differences between groups was determined by using one-way ANOVA, and multiple comparisons were performed by Tukey Alpha, post hoc analysis. […]

[3] = system: STZ-induced diabetic rats; assay: Pancreatic insulin contents by acid-ethanol extraction and rat insulin ELISA; format: in vivo, Wistar rats; conditions: 100 mg/kg, 8 weeks, vs STZ-induced diabetic group
Procedure: (§1) Blood glucose levels and body weight of each group were monitored on weekly basis under fasting states. Blood samples were drawn from tail vein to measure the glucose levels by blood glucose analyzer. After 8 weeks of the experiments, rats under 8 hours of fasting states were anaesthetized by phenobarbital sodium (60 mg/kg), and blood samples were collected via cardiopuncture. Serum was stored at −80° C. until measurement of the insulin levels. A part of cryopreserved isolated pancreas was used for the measurement of pancreatic insulin contents. Briefly, pancreas were homogenized in an acid-ethanol solution (75% ethanol, 1.5% HCl, and 23.5% deionized water), and the mixture was kept for 4 hours at 4° C. to extract the insulin. Serum- and isolated pancreatic insulin contents were measured by rat insulin ELISA kit (Amersham Biosciences, N.J., USA).

[4] = system: STZ-induced diabetic rats; assay: Serum insulin levels by rat insulin ELISA; format: in vivo, Wistar rats; conditions: 100 mg/kg, 8 weeks, vs STZ-induced diabetic group
Procedure: as §1

[5] = system: STZ-induced diabetic rats; assay: Mortality on daily oral administration for eight weeks; format: in vivo, Wistar rats; conditions: doses up to 100 mg/kg of body weight
Procedure: (§2) Diabetes Induction: Prior to induction of diabetes, animals were given a high-fat diet (40% fat content) for two weeks. Diabetes was induced by administrating intraperitoneally a single dose of freshly prepared solution of streptozotocin (45 mg/kg) (Wako, Richmond, USA) in a chilled 0.1 M citrate buffer, pH 4.5. The normal control rats were injected with citrate buffer alone. Fasting blood glucose levels (FBG) were measured after 48 hours, and one week of diabetes induction with a blood glucose analyzer (Accu-Chek®, Roche, Mannheim, Germany). Rats with FBG levels of ≥200 mg/dL were considered diabetic, and randomly divided into diabetic and a compound 1-treated (100 mg/kg) groups. […] This indicated the safety of doses up to 100 mg/kg of body weight.

[6] = system: STZ-induced diabetic rats; assay: Dose optimization of anti-diabetic effect in STZ-induced diabetic rats; format: in vivo, Wistar rats; conditions: 25, 50, and 100 mg/kg in STZ-induced diabetic rats
Procedure: as §2

[7] = system: pancreatic islet in diabetic Wistar rats; assay: Quantification of pancreatic islet area and beta-cell number; format: in vivo; conditions: 100 mg/kg, per pancreas section, n=5
Source text: Procedure: The pancreatic islet area (μ2) and the beta-cell number were quantified from overlapped images of pancreas that was immunostained with insulin and DAPI in all islet sections using NIS-Elements image analysis software AR 3.0. The pancreatic islet area (μ2) and the beta-cell number per section were enumerated by using five sections per pancreas, and five rats from each group.

## O=C(O)c1ccccc1Nc1ccc([N+](=O)[O-])cc1[N+](=O)[O-] [Compound 1, 2,4-Dinitroanilino-benzoic acid]
[1]; H&E staining, STZ-induced diabetic rats
  degenerative changes / islet atrophy (histopathology): markedly attenuated the STZ-induced islet atrophy; also recorded: significantly attenuated
[1]; anti-insulin immunostaining, vs STZ-induced diabetic group
  immunofluorescent staining for insulin / residual beta-cell function: increased immunoreactivity for insulin; also recorded: restored the residual beta-cell function
[2]; 100 mg/kg of body weight, long term treatment, vs untreated diabetic group
  FBG levels (in words): significant reduction in FBG levels
[2]; STZ-induced diabetic rats, 100 mg/kg, eight weeks of treatment, mean ± SE, 06 rats, *P<0.05 vs diabetic group
  FBG: 126 ± 8* mg/dL
[3]
  pancreatic insulin contents: increase in pancreatic insulin contents; also recorded: significantly restored
[4]
  serum insulin levels: marked increase in serum insulin levels
[5]
  mortality: without significant mortality
[6]
  anti-diabetic effect, dose optimization: dose dependent anti-diabetic effect was observed with a significant effect at 100 mg/kg
[7]
  beta-cell number: significantly restored
  islet area: significantly restored
